Paper PMC10375533, “Preference of Bacterial Rhamnosyltransferases for 6-Deoxysugars Reveals a Strategy To Deplete O-Antigens” (Journal of the American Chemical Society, 2023)
Entries after “also recorded” stand apart in the source; their conditions may differ. Read-outs that look alike come from different tables or passages of the source.

Target: T. thermophilus RfbF (Thermus thermophilus, UniProt Q72KB9)
Experiment: Isothermal titration calorimetry (ITC) binding measurements with RfbF
Details: for ΔG / ΔH / ΔS / KD / binding to RfbF by ITC (in words) / Kd / n-value (stoichiometry): ITC; for fold increase in KD relative to dTDP-β-L-Rha: ITC with RfbF, compared to the native donor; for n-value (stoichiometry): ligands with sigmoidal binding curves, SD in parentheses, n = 3
[1] = 25 °C, ligand titrated into 110 µM RfbF
[2] = 25 °C, ligand titrated into 110 µM RfbF, one-site model, spread = SD, triplicate
[3] = ligand titrated into 110 µM RfbF
[4] = KD, 25 °C, ligand titrated into 110 µM RfbF, one-site model, spread = SD, triplicate

Chain of T. thermophilus RfbF (Q72KB9 entry or part of it): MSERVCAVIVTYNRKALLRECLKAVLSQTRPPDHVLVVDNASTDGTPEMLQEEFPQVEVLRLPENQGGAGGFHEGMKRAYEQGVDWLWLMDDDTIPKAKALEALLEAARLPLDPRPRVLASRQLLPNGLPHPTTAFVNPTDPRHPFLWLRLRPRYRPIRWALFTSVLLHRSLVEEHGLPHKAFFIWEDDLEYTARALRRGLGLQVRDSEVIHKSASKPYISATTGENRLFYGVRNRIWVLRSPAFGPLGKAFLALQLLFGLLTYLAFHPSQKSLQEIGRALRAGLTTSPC

Row | Compound | ΔG [1] | ΔH [1] | ΔS [1] | binding to RfbF by ITC (in words) [3] | fold increase in KD relative to dTDP-β-L-Rha [fold] | Kd [4] [µM] | other results
1 | CC1OC(OP(=O)(O)OP(=O)(O)OCC2OC(n3cnc4c(=O)[nH]c(N)nc43)C(O)C2O)C(O)C(O)C1O [GDP-β-L-Rha, GDP-β-L-rhamnose] | N/B | N/B | N/B | no measurable; also recorded: no binding | – | – | KD [2]: N/B
2 | CC1OC(OP(=O)(O)O)C(O)C(O)C1O [L-Rha-1-phosphate, L-Rhamnose-1-phosphate, reference compound] | – | – | – | – | – | – | Kd (5-10 mM ligand titrated into 110 µM RfbF, read-out: KD (beyond measurable limit)): > 1000 µM
3 | CC1OC(OP(=O)(O)OP(=O)(O)OCC2OC(n3ccc(=O)[nH]c3=O)C(O)C2O)C(O)C(O)C1O [UDP-β-L-Rha, UDP-β-L-rhamnose] | 8.55 (3.65) kcal/mol | -6.72 (1.01) kcal/mol | -51.2 (14.7) cal/mol·K | – | ~4.5 | 36.1 ± 10.7 | n-value (stoichiometry): 1.30 (0.28)
4 | Cc1cn([C@H]2C[C@H](O)[C@@H](COP(=O)(O)OP(=O)(O)O)O2)c(=O)[nH]c1=O [dTDP, reference compound] | – | – | – | no binding profile is observed; also recorded: did not bind | – | – | –
5 | Cc1cn(C2CC(O)C(COP(=O)(O)OP(=O)(O)OC3OC(CO)C(O)C(O)C3O)O2)c(=O)[nH]c1=O [dTDP-α-D-Glc, dTDP-a-D-glucose, reference compound] | – | – | – | – | – | 637 ± 96 | fold increase in KD relative to dTDP-β-L-Rha (listed as dTDP-α-Glc): ~75 fold
6 | Cc1cn(C2CC(O)C(COP(=O)(O)OP(=O)(O)OC3OC(C)C(O)C(O)C3O)O2)c(=O)[nH]c1=O [dTDP-α-L-Rha, dTDP-a-L-rhamnose] | N/B | N/B | N/B | no detectable binding | – | – | KD [2]: N/B; binding to RfbF by ITC (in words) (ligand titrated into 110 µM RfbF, listed as dTDP-a-L-Rha): no measurable
7 | Cc1cn(C2CC(O)C(COP(=O)(O)OP(=O)(O)OC3OC(C)C(O)C(O)C3O)O2)c(=O)[nH]c1=O [dTDP-β-L-6dTal, dTDP-6-deoxy-β-L-talose] | 0.415 (2.847) kcal/mol | -8.17 (2.70) kcal/mol | -28.8 (3.7) cal/mol·K | comparable affinity as the native substrate | – | 16.5 | n-value (stoichiometry): 0.934 (0.028)
8 | Cc1cn(C2CC(O)C(COP(=O)(O)OP(=O)(O)OC3OC(C)C(O)C(O)C3O)O2)c(=O)[nH]c1=O [dTDP-β-L-Fuc, dTDP-β-L-fucose] | – | – | – | – | ~15 | 126 ± 1 | –
9 | Cc1cn(C2CC(O)C(COP(=O)(O)OP(=O)(O)OC3OC(CO)C(O)C(O)C3O)O2)c(=O)[nH]c1=O [dTDP-β-L-Man, dTDP-β-L-mannose] | – | – | – | – | 60 | 496 ± 56 | –
